Laboratory results reported in PubChem BioAssay AID720632 (Broad Institute, 2013).
Calls of active or inactive are those of the source. The rule behind the calls is not given here.

These molecules were tested against Caspase-6 (Homo sapiens) (UniProt P55212) (assay: human caspase-6 inhibitors, dose response, biochemical, VEID-R110 fluorescence, cherry-pick (AID 720632)). Conditions: caspase-6, VEID-R110 fluorogenic substrate; at 23.5 µM (top of the series).
Chain of Caspase-6 (Homo sapiens) (P55212 24-179 limits assumed): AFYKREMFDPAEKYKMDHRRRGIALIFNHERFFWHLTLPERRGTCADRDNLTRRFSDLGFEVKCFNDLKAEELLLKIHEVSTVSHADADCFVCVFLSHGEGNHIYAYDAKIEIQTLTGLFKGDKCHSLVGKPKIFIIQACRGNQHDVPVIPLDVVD
Chain of Caspase-6 (Homo sapiens) (P55212 194-293 limits assumed): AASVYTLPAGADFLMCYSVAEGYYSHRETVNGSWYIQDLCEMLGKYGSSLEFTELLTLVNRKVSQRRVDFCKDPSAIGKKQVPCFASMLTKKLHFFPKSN

Row | Compound | activity change, negative = inhibition
1 | N#C[C@@H]1[C@H](c2ccc(C3=CCCCC3)cc2)[C@@H](CO)N1S(=O)(=O)c1ccccc1 | inactive

Same assay, conditions: caspase-6, VEID-R110 fluorogenic substrate; at 26 µM (top of the series)

Row | Compound | activity change, negative = inhibition
2 | CCCCn1c(N)c(N(CCC(C)C)C(=O)COC(=O)c2ccc([N+](=O)[O-])s2)c(=O)[nH]c1=O | inactive
3 | O=C(NC1CC1)c1c(O)c2ccccc2[nH]c1=O | inactive
4 | O=C(CCCn1c(=S)[nH]c2cc3c(cc2c1=O)OCO3)N1CCN(c2ccc(Cl)cc2)CC1 | inactive
5 | CCC(=O)Nc1ccc2c(c1)OC[C@@H](C)NC[C@@H](C)[C@@H](OC)CN(C)C2=O | inactive
6 | N#CC1=C(N)Oc2cc(N)ccc2C1c1ccccc1 (stereo unspecified) | inactive
7 | O=C1c2ccccc2[C@@H]2C[C@@H](O)[C@H](Nc3cccc4ccccc34)CCN12 | inactive
8 | CCC(C)CN1C(=O)CN(S(C)(=O)=O)CC1(C)C(=O)Nc1ccc2c(c1)OCCO2 (stereo unspecified) | inactive
9 | CC(=O)N1c2ccc(S(=O)(=O)N(C)CC(=O)NCc3ccc(C)cc3)cc2CC1C (stereo unspecified) | inactive
10 | O=C(COC(=O)c1cccc(OC(F)F)c1)Nc1cccc(S(=O)(=O)N2CCCC2)c1 | inactive
11 | CCC1(C)Cc2c(C#N)c(N)n(-c3ccccc3)c(=S)c2CO1 (stereo unspecified) | inactive
12 | Cc1c(Cl)cccc1NC(=O)Nc1cc(C(C)(C)C)on1 | inactive
13 | Cc1csc(=O)n1CC(=O)OCC(=O)NCc1ccc(F)cc1 | inactive
14 | Cc1[nH]ncc1Nc1c(C(C)C)cccc1C(C)C | inactive
15 | CO[C@@H]1CN(C)C(=O)c2ccc(NC(C)=O)cc2OC[C@H](C)N(C(=O)CC2CC2)C[C@@H]1C | inactive
16 | Cc1cc(NC(=O)C23CC4CC(C2)CC(n2cnc([N+](=O)[O-])n2)(C4)C3)no1 | inactive
17 | Cc1ccccc1C(=O)O/N=C(\N)c1ccccc1 | inactive
18 | CO[C@@H]1CN(C)C(=O)c2ccc(NC(=O)C3CC3)cc2OC[C@H](C)N(Cc2cccc(F)c2)C[C@H]1C | inactive
19 | CCCCCc1ccc(CC(=O)N2CCOCC2)cc1 | inactive
20 | CCOc1ccc(N2CC(C(=O)NCC(=O)Nc3ccc(F)c(F)c3F)CC2=O)cc1 (stereo unspecified) | inactive
21 | CSCCC(NS(=O)(=O)c1ccccc1F)C(=O)NCC(C)(C)N1CCOCC1 (stereo unspecified) | inactive
22 | COc1ccccc1CN(C)C(=O)CN1CCN(CC(=O)Nc2ccccc2Cl)CC1 | inactive
23 | O=C1CC(NS(=O)(=O)c2cc(F)ccc2F)CN1c1cccc(F)c1 (stereo unspecified) | inactive
24 | O=C(C[C@@H]1C[C@H]2c3cc(NC(=O)Nc4ccccc4F)ccc3O[C@H]2[C@H](CO)O1)NC1CCCC1 | inactive
25 | O=[N+]([O-])c1ccc2nc(-c3ccccc3[N+](=O)[O-])[nH]c2c1 | inactive
26 | COc1ccc(CCNC(=O)c2cc3cccc(OC)c3oc2=O)cc1OC | inactive

Row | Compound | activity change, negative = inhibition
27 | O=C(N/N=C/c1cccc(O)c1)c1ccccc1O | inactive
28 | O=C(Cc1ccc([N+](=O)[O-])cc1)c1c(O)cc(O)cc1O | inactive
29 | CCCC(=O)Nc1ccc2c(c1)OC[C@@H](C)NC[C@H](C)[C@@H](OC)CN(C)C2=O | inactive
30 | Cc1ccc(C(=O)O)cc1NC(=O)c1ccc2c(c1)C(=O)N(c1ccc([N+](=O)[O-])cc1)C2=O | inactive
31 | COc1ccc(N2CCN(C(=O)CCCCCn3c(=S)[nH]c4cc5c(cc4c3=O)OCO5)CC2)cc1 | inactive
32 | CCN(CC)C(=O)COc1ccc(/C(C)=N/NC(=O)c2ccccc2O)cc1 | inactive
33 | O=C(O)C1Sc2[nH]c(=O)sc2C2c3ccc(O)cc3OC(=O)C12 (stereo unspecified) | inactive
34 | O=C1C2C3C=CC(CC3)C2C(=O)N1c1nccs1 (stereo unspecified) | inactive
35 | COc1cccc(CNC(=O)CCn2ccc3cc(S(=O)(=O)N4CCCC4)ccc32)c1 | inactive
36 | O=C(C[C@@H]1C=C[C@H](NC(=O)C2CC2)[C@H](CO)O1)Nc1nccs1 | inactive
37 | CN1C(=O)CC(Sc2ccccc2C(=O)O)C1=O (stereo unspecified) | inactive
38 | Cc1ccc(C)c(N2N=C(C(=O)OCc3nnc(-c4ccccc4Br)o3)CCC2=O)c1 | inactive
39 | Cn1c(=O)[nH]c(=O)c2c1nc(CN1CCOCC1)n2Cc1ccccc1 | inactive
40 | O=C(NCCCO)c1cc([N+](=O)[O-])cc2c1C=Cc1ccccc1O2 | inactive
41 | Cc1ccc([N+](=O)[O-])cc1NC(=O)C(C)N1CCCCC1 (stereo unspecified) | inactive
42 | COc1cc(Br)cc(CN2CCN(C/C=C/c3ccccc3)CC2)c1O | inactive
43 | Cc1ccc(Nc2ncnc3sccc23)c(C)c1 | inactive
44 | CC(CNC(=O)c1ccc(OC2CCN(Cc3ccccn3)CC2)cc1)c1ccccc1 (stereo unspecified) | inactive
45 | Oc1ccc(Br)cc1CNc1cccc2cccnc12 | inactive
46 | COc1ccc(OC)c(S(=O)(=O)NCC(c2cccs2)N2CCc3ccccc3C2)c1 (stereo unspecified) | inactive
47 | CCC(=O)Nc1ccc2c(c1)OC[C@H](C)N(C(=O)C1CC1)C[C@@H](C)[C@@H](OC)CN(C)C2=O | inactive
48 | CO[C@@H]1CN(C)C(=O)c2ccc(NC(=O)C3CC3)cc2OC[C@@H](C)N(Cc2ccccc2)C[C@@H]1C | inactive
49 | Cc1noc(C)c1COc1ccccc1C(=O)N(C)CC(=O)Nc1ccc(F)c(F)c1F | inactive
50 | CN1CCN(C(=O)c2cc(Cl)cc(Cl)c2)CC1 | inactive
51 | O=C(N/N=C/c1coc2ccccc2c1=O)c1cc(Br)ccc1O | inactive

Row | Compound | activity change, negative = inhibition
52 | CCC(=O)N1C[C@H](C)[C@H](OC)CN(C)C(=O)c2ccc(NC(=O)c3ccccc3)cc2OC[C@H]1C | inactive
53 | COCC(=O)Nc1ccc2c(c1)OC[C@H](C)N(CC1CC1)C[C@H](C)[C@H](OC)CN(C)C2=O | inactive
54 | O=C(c1nc2ccccn2c1CN1CCCC(c2nc3ccccc3o2)C1)N1CCCC1 (stereo unspecified) | inactive
55 | CCC(C)(C)NC(=O)CN(C(=O)CNS(=O)(=O)c1ccc(F)cc1)c1ccc2c(c1)OCCO2 | inactive
56 | COC(=O)c1ccc(C(=O)OC)c(NC(=O)CN(c2ccc3c(c2)OCO3)S(C)(=O)=O)c1 | inactive
57 | COc1ccc(C(=O)Nc2cc(C(=O)O)cc(C(=O)O)c2)cc1Cl | inactive
58 | Cc1cc(C)c(NC(=O)COC(=O)c2ccc([N+](=O)[O-])s2)c(C)c1 | inactive
59 | O=C(N/N=C/c1ccc(O)cc1O)C(=O)N/N=C/c1ccc(O)cc1O | inactive
60 | Cn1c(NN=O)nc2ccccc21 | inactive
61 | O=C(NCC(=O)N1CC=C(c2ccccc2)CC1)c1ccccc1Br | inactive
62 | CCCN1C[C@@H](C)[C@H](OC)CN(C)C(=O)c2ccc(NC(=O)c3ccccc3)cc2OC[C@@H]1C | inactive
63 | CCC(C)Nc1nc2c(C)cccn2c(=O)c1C=Nc1ccc(OC)cc1 (stereo unspecified) | inactive
64 | COCC(=O)Nc1ccc2c(c1)OC[C@@H](C)N(CC1CC1)C[C@H](C)[C@@H](OC)CN(C)C2=O | inactive
65 | Oc1ccc(/C=N/N=C/c2ccc(O)c(O)c2)cc1O | inactive
66 | CCOC(=O)C1=C(COC(=O)c2ccc([N+](=O)[O-])s2)NC(=O)NC1C (stereo unspecified) | inactive
67 | O=c1nc2ccc(Cl)cn2c2ccc(S(=O)(=O)N3CCCCC3)cc12 | inactive
68 | CCCN1C[C@H](C)[C@H](OC)CN(C)C(=O)c2ccc(NC(=O)c3ccccc3)cc2OC[C@@H]1C | inactive
69 | CO[C@H]1CN(C)C(=O)c2ccc(NC(=O)C3CC3)cc2OC[C@@H](C)N(Cc2cccc(F)c2)C[C@@H]1C | inactive
70 | O=C(CCCCCn1c(=S)[nH]c2cc3c(cc2c1=O)OCO3)N1CCN(Cc2ccccc2)CC1 | inactive
71 | C=CCC(NCc1ccccc1)c1ccc(Cl)cc1 (stereo unspecified) | inactive
72 | CCOCCCNC(=O)C1c2ccccc2Oc2ccccc21 | inactive
73 | Cc1ccc(/C(N)=N/OC(=O)c2ccc3ccccc3c2)cc1 | inactive
74 | O=C(Nc1ccc(F)cc1)c1ccccc1NC(=O)C1CC=CCC1C(=O)O (stereo unspecified) | inactive
75 | CO[C@H]1CN(C)C(=O)c2ccc(NC(=O)c3ccccc3)cc2OC[C@H](C)N(C(=O)C2CC2)C[C@H]1C | inactive
76 | COCC(=O)Nc1ccc2c(c1)OC[C@@H](C)N(CC1CC1)C[C@@H](C)[C@H](OC)CN(C)C2=O | inactive
